#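 GI50 is the concentration that inhibits growth by half. TGI is the concentration that stops growth completely.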
# Columns and labels:
# Test in all cases: growth of human tumour cells (NCI), 384-well format
# [1] = test system: SF-268 CNS
# [2] = test system: IGROV1 ovarian
# [3] = test system: HOP-62 NSCLC
# [4] = test system: CCRF-CEM leukemia
# [5] = test system: SW-620 colon
# [6] = test system: HOP-92 NSCLC
# [7] = test system: SK-OV-3 ovarian
# [8] = test system: NCI/ADR-RES ovarian
# [9] = test system: K-562 leukemia
# [10] = test system: NCI-H322M lung
# [11] = test system: MOLT-4 leukemia
# [12] = test system: M14 melanoma
# [13] = test system: HCT-116 colon
# [14] = test system: OVCAR-5 ovarian
# [15] = test system: T-47D breast
# [16] = test system: SN12C renal
# [17] = test system: LOX IMVI melanoma
# [18] = test system: UACC-257 melanoma
# [19] = test system: OVCAR-8 ovarian
# [20] = test system: NCI-H226 lung
# [21] = test system: MDA-MB-468 breast
# [22] = test system: HS 578T breast
# [23] = test system: HL-60(TB) leukemia
# [24] = test system: UO-31 renal
# [25] = test system: PC-3 prostate
# [26] = test system: A549 NSCLC
# [27] = test system: MDA-MB-435 melanoma
# [28] = test system: RXF 393 renal
# [29] = test system: NCI-H23 lung
# [30] = test system: TK-10 renal
# [31] = test system: NCI-H522 lung
# [32] = test system: KM12 colon
# [33] = test system: RPMI-8226 leukemia
# [34] = test system: OVCAR-4 ovarian
# [35] = test system: SNB-19 CNS
# [36] = test system: UACC-62 melanoma
# [37] = test system: SNB-75 CNS
# [38] = test system: BT-549 breast
# [39] = test system: DU-145 prostate
# [40] = test system: HT29 colon
# [41] = test system: OVCAR-3 ovarian
# [42] = test system: HCT-15 colon
# [43] = test system: SK-MEL-28 melanoma
# [44] = test system: A498 renal
# [45] = test system: SK-MEL-2 melanoma
# [46] = test system: SF-295 CNS
# [47] = test system: U251 glioblastoma
# [48] = test system: 786-0 renal
# [49] = test system: SF-539 CNS
# [50] = test system: MCF7 breast
# [51] = test system: CAKI-1 renal
# [52] = test system: MALME-3M melanoma
# [53] = test system: ACHN renal
# [54] = test system: MDA-MB-231 breast
# [55] = test system: EKVX NSCLC
structure (smiles),measurement,setting,value
Cn1c(CCCC(=O)O)nc2cc(N(CCCl)CCCl)ccc21,GI50,[1],35.6 µM
same,TGI,[1],> 100 µM
same,GI50,[2],> 100 µM
same,TGI,[2],> 100 µM
same,GI50,[3],42 µM
same,TGI,[3],> 100 µM
same,GI50,[4],17.9 µM
same,TGI,[4],32.4 µM
same,GI50,[5],72.7 µM
same,TGI,[5],> 100 µM
same,GI50,[6],> 100 µM
same,TGI,[6],> 100 µM
same,GI50,[7],> 100 µM
same,TGI,[7],> 100 µM
same,GI50,[8],> 100 µM
same,TGI,[8],> 100 µM
same,GI50,[9],> 100 µM
same,TGI,[9],> 100 µM
same,GI50,[10],> 100 µM
same,TGI,[10],> 100 µM
same,GI50,[11],3.2 µM
same,TGI,[11],10.3 µM
same,GI50,[12],55.5 µM
same,TGI,[12],> 100 µM
same,GI50,[13],61.3 µM
same,TGI,[13],> 100 µM
same,GI50,[14],> 100 µM
same,TGI,[14],> 100 µM
same,GI50,[15],> 100 µM
same,TGI,[15],> 100 µM
same,GI50,[16],34.7 µM
same,TGI,[16],> 100 µM
same,GI50,[17],88.3 µM
same,TGI,[17],> 100 µM
same,GI50,[18],> 100 µM
same,TGI,[18],> 100 µM
same,GI50,[19],69.8 µM
same,TGI,[19],> 100 µM
same,GI50,[20],93.1 µM
same,TGI,[20],> 100 µM
same,GI50,[21],11.9 µM
same,TGI,[21],32.8 µM
same,GI50,[22],> 100 µM
same,TGI,[22],> 100 µM
same,GI50,[23],17.3 µM
same,TGI,[23],33.2 µM
same,GI50,[24],> 100 µM
same,TGI,[24],> 100 µM
same,GI50,[25],> 100 µM
same,TGI,[25],> 100 µM
same,GI50,[26],> 100 µM
same,TGI,[26],> 100 µM
same,GI50,[27],> 100 µM
same,TGI,[27],> 100 µM
same,GI50,[28],41.7 µM
same,TGI,[28],> 100 µM
same,GI50,[29],60.3 µM
same,TGI,[29],> 100 µM
same,GI50,[30],> 100 µM
same,TGI,[30],> 100 µM
same,GI50,[31],39.3 µM
same,TGI,[31],> 100 µM
same,GI50,[32],> 100 µM
same,TGI,[32],> 100 µM
same,GI50,[33],39.8 µM
same,TGI,[33],> 100 µM
same,GI50,[34],> 100 µM
same,TGI,[34],> 100 µM
same,GI50,[35],> 100 µM
same,TGI,[35],> 100 µM
same,GI50,[36],31.8 µM
same,TGI,[36],> 100 µM
same,GI50,[37],> 100 µM
same,TGI,[37],> 100 µM
same,GI50,[38],57 µM
same,TGI,[38],> 100 µM
same,GI50,[39],> 100 µM
same,TGI,[39],> 100 µM
same,GI50,[40],> 100 µM
same,TGI,[40],> 100 µM
same,GI50,[41],> 100 µM
same,TGI,[41],> 100 µM
same,GI50,[42],> 100 µM
same,TGI,[42],> 100 µM
same,GI50,[43],> 100 µM
same,TGI,[43],> 100 µM
same,GI50,[44],> 100 µM
same,TGI,[44],> 100 µM
same,GI50,[45],> 100 µM
same,TGI,[45],> 100 µM
same,GI50,[46],> 100 µM
same,TGI,[46],> 100 µM
same,GI50,[47],47.1 µM
same,TGI,[47],> 100 µM
same,GI50,[48],90.6 µM
same,TGI,[48],> 100 µM
same,GI50,[49],50.4 µM
same,TGI,[49],> 100 µM
same,GI50,[50],71.3 µM
same,TGI,[50],> 100 µM
same,GI50,[51],55.4 µM
same,TGI,[51],> 100 µM
same,GI50,[52],> 100 µM
same,TGI,[52],> 100 µM
same,GI50,[53],68.3 µM
same,TGI,[53],> 100 µM
same,GI50,[54],> 100 µM
same,TGI,[54],> 100 µM
same,GI50,[55],> 100 µM
same,TGI,[55],> 100 µM
